{
  "source": "patent US20070142295A1",
  "about": "“Thrombopoietic compounds” (AMGEN INC., priority 1998, published 2007)",
  "key": {"human mpl receptor": {"biological_target": "T1, human mpl receptor (Homo sapiens, UniProt P40238)", "T1 construct": "murine 32D cells transfected with the full-length c-Mp1; expressed in transfected cells; host or cells: IL-3 dependent clone of murine 32D cells", "T1 sequence (P40238 26-635)": "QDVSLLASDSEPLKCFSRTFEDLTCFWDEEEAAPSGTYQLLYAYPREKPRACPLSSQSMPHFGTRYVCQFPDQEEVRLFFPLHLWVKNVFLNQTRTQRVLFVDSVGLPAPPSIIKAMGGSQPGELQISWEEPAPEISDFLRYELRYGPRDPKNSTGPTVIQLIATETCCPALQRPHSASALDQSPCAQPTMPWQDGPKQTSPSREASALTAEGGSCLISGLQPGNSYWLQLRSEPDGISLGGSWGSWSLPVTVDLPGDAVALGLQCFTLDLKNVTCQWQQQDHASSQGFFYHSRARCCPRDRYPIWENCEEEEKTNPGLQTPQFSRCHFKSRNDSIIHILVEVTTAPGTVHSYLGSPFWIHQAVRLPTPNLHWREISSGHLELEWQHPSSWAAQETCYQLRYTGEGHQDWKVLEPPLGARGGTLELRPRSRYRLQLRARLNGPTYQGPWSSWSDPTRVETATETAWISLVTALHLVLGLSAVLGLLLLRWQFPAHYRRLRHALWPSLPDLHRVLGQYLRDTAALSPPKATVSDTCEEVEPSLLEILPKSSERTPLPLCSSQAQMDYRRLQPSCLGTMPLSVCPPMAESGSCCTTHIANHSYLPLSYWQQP", "experiment": "TPO in vitro bioassay: mitogenic/cell-proliferation assay with IL-3 dependent murine 32D cells transfected with human mpl receptor", "type": "cell-based", "settings": "cell proliferation assay", "procedure": "Bioactivity assay. The TPO in vitro bioassay is a mitogenic assay utilizing an IL-3 dependent clone of murine 32D cells that have been transfected with human mpl receptor. This assay is described in greater detail in WO 95/26746. Cells are maintained in MEM medium containing 10% Fetal Clone II and 1 ng/ml mIL-3. Prior to sample addition, cells are prepared by rinsing twice with growth medium lacking mIL-3. An extended twelve point TPO standard curve is prepared, ranging from 3333 to 39 pg/ml. Four dilutions, estimated to fall within the linear portion of the standard curve, (1000 to 125 pg/ml), are prepared for each sample and run in triplicate. A volume of 100 μl of each dilution of sample or standard is added to appropriate wells of a 96 well microtiter plate containing 10,000 cells/well. After forty-four hours at 37° C. and 10% CO2, MTS (a tetrazolium compound which is bioreduced by cells to a formazan) is added to each well. Approximately six hours later, the optical density is read on a plate reader at 490 nm. A dose response curve (log TPO concentration vs. O.D.—Background) is generated and linear regression analysis of points which fall in the linear portion of the standard curve is performed. Concentrations of unknown test samples are determined using the resulting linear equation and a correction for the dilution factor.\nThe resulting peptides are readily accessible by conventional solid phase peptide synthesis methods (Merrifiled, R. B., Journal of the American Chemical Society 85:2149 (1963)) with either Fmoc or t-Boc chemistry. […] This might be due to differences in the conditions used in the two assays. […] It is interesting to note that a wide range of length is tolerated by the linker. The optimal linker with the selected TMP monomers (SEQ ID NO: 1) apparently is composed of 8 glycines."}, "platelets": {"tested_on": "platelets", "experiment": "platelet production in normal mice, dose response with 7-day micro-osmotic pumps", "type": "in vivo", "procedure": "Mice. Normal female BDF1 approximately 10-12 weeks of age.\nBleed schedule. Ten mice per group treated on day 0, two groups started 4 days apart for a total of 20 mice per group. Five mice bled at each time point, mice were bled a minimum of three times a week. Mice were anesthetized with isoflurane and a total volume of 140-160 μl of blood was obtained by puncture of the orbital sinus. Blood was counted on a Technicon HIE blood analyzer running software for murine blood. Parameters measured were white blood cells, red blood cells, hematocrit, hemoglobin, platelets, neutrophils.\nTreatments. Mice were either injected subcutaneously for a bolus treatment or implanted with 7 day micro-osmotic pumps for continuous delivery. Subcutaneous injections were delivered in a volume of 0.2 ml. Osmotic pumps were inserted into a subcutaneous incision made in the skin between the scapulae of anesthetized mice. Compounds were diluted in PBS with 0.1% BSA. All experiments included one control group, labeled “carrier” that were treated with this diluent only. The concentration of the test articles in the pumps was adjusted so that the calibrated flow rate from the pumps gave the treatment levels indicated in the graphs.\nCompounds. A dose titration of the compound was delivered to mice in 7 day micro-osmotic pumps. Mice were treated with various compounds at a single dose of 100 ug/kg in 7 day osmotic pumps. Some of the same compounds were then given to mice as a single bolus injection."}, "c-Mp1 [1]": {"biological_target": "T2, c-Mp1 (Homo sapiens, UniProt P40238)", "T2 sequence (P40238 26-635)": "T1 sequence (P40238 26-635)", "settings": "cited from earlier work"}, "c-Mp1 [2]": {"biological_target": "T2, c-Mp1", "settings": "cited from earlier work", "remark": "listed apart in the source"}},
  "note": "Read-outs that look alike come from different tables or passages of the source. Positions of bridges follow the written chain, without caps; N, C: chain ends. Residues, ends and D or L forms follow the SMILES beside them. No end group written: not given here. PEG = not defined here",
  "data": [
    {"compound": "IEGPTLRQWLAARAGGGNGSGGIEGPTLRQWLAARA-OH [Peptide 21, TMP-GGGNGSGG-TMP]", "values": [
      {"measurement": "in vitro bioactivity, in words", "setting": "human mpl receptor", "value": "activity comparable to that of the -(Gly)8-linked analog"}
    ]},
    {"compound": "TMP-GGGC(PEG)GGGG-TMP (IEGPTLRQWLAARAGGGC(PEG)GGGGIEGPTLRQWLAARA; reading uncertain) [Peptide 20]", "values": [
      {"measurement": "in vitro bioactivity, in words", "setting": "human mpl receptor", "value": "higher in vitro bioactivity as compared to their unpegylated counterparts"},
      {"measurement": "activity compared with unpegylated rHu-MGDF", "setting": "platelets; 10 μg/kg/day vs 100 μg/kg/day unpegylated rHu-MGDF, same experiment", "value": "about equally active"},
      {"measurement": "percent of maximal activity", "setting": "platelets; 10 μg/kg/day, 7-day micro-osmotic pumps", "value": "about 50%"},
      {"measurement": "dose at which the maximum effect was seen", "setting": "platelets; 7-day micro-osmotic pumps, data not shown", "value": 100, "unit": "µg/kg/day"}
    ]},
    {"compound": "TMP-GGGK(PEG)GGGG-TMP (IEGPTLRQWLAARAGGGK(PEG)GGGGIEGPTLRQWLAARA; reading uncertain) [Peptide 19]", "values": [
      {"measurement": "in vitro bioactivity, in words", "setting": "human mpl receptor", "value": "higher in vitro bioactivity as compared to their unpegylated counterparts"}
    ]},
    {"compound": "IEGPTLRQWLAARAGPNGIEGPTLRQWLAARA-OH [Peptide 13, TMP-GPNG-TMP]", "values": [
      {"measurement": "fold increase in potency as compared to the monomer", "setting": "human mpl receptor", "value": "about 100 fold"},
      {"measurement": "fold less active than the GGGG-linked analog", "setting": "human mpl receptor", "value": "> 10", "unit": "fold"}
    ]},
    {"compound": "CC[C@H](C)[C@H](N)C(=O)N[C@@H](CCC(=O)O)C(=O)NCC(=O)N1CCC[C@H]1C(=O)N[C@H](C(=O)N[C@@H](CC(C)C)C(=O)N[C@@H](CCCNC(=N)N)C(=O)N[C@@H](CCC(N)=O)C(=O)N[C@@H](CS)C(=O)N[C@@H](CC(C)C)C(=O)N[C@@H](C)C(=O)N[C@@H](C)C(=O)N[C@@H](CCCNC(=N)N)C(=O)N[C@@H](C)C(=O)NCC(=O)NCC(=O)NCC(=O)NCC(=O)NCC(=O)NCC(=O)NCC(=O)NCC(=O)N[C@H](C(=O)N[C@@H](CCC(=O)O)C(=O)NCC(=O)N1CCC[C@H]1C(=O)N[C@H](C(=O)N[C@@H](CC(C)C)C(=O)N[C@@H](CCCNC(=N)N)C(=O)N[C@@H](CCC(N)=O)C(=O)N[C@@H](CS)C(=O)N[C@@H](CC(C)C)C(=O)N[C@@H](C)C(=O)N[C@@H](C)C(=O)N[C@@H](CCCNC(=N)N)C(=O)N[C@@H](C)C(=O)O)[C@@H](C)O)[C@@H](C)CC)[C@@H](C)O", "note": "[Peptide 15, IEGPTLRQCLAARA-GGGGGGGG-IEGPTLRQCLAARA] (H-IEGPTLRQCLAARAGGGGGGGGIEGPTLRQCLAARA-OH; N-terminus assumed)", "values": [
      {"measurement": "in vitro bioactivity, in words", "setting": "human mpl receptor", "value": "inactive"}
    ]},
    {"compound": "CC[C@H](C)[C@H](N)C(=O)N[C@@H](CCC(=O)O)C(=O)NCC(=O)N1CCC[C@H]1C(=O)N[C@H](C(=O)N[C@@H](CC(C)C)C(=O)N[C@@H](CCCNC(=N)N)C(=O)N[C@@H](CCC(N)=O)C(=O)N[C@@H](Cc1c[nH]c2ccccc12)C(=O)N[C@@H](CC(C)C)C(=O)N[C@@H](C)C(=O)N[C@@H](C)C(=O)N[C@@H](CCCNC(=N)N)C(=O)N[C@@H](C)C(=O)NCCCC[C@H](NC(=O)CCNC(=O)[C@H](C)NC(=O)[C@H](CCCNC(=N)N)NC(=O)[C@H](C)NC(=O)[C@H](C)NC(=O)[C@H](CC(C)C)NC(=O)[C@H](Cc1c[nH]c2ccccc12)NC(=O)[C@H](CCC(N)=O)NC(=O)[C@H](CCCNC(=N)N)NC(=O)[C@H](CC(C)C)NC(=O)[C@@H](NC(=O)[C@@H]1CCCN1C(=O)CNC(=O)[C@H](CCC(=O)O)NC(=O)[C@@H](N)[C@@H](C)CC)[C@@H](C)O)C(N)=O)[C@@H](C)O", "note": "[TMP C-C dimer]", "values": [
      {"measurement": "IC50", "setting": "c-Mp1 [1]; read-out: binding affinity", "value": 0.5, "unit": "nM"},
      {"measurement": "EC50", "setting": "c-Mp1 [2]", "value": 0.1, "unit": "nM"}
    ]},
    {"compound": "CC[C@H](C)[C@H](N)C(=O)N[C@@H](CCC(=O)O)C(=O)NCC(=O)N1CCC[C@H]1C(=O)N[C@H](C(=O)N[C@@H](CC(C)C)C(=O)N[C@@H](CCCNC(=N)N)C(=O)N[C@@H](CCC(N)=O)C(=O)N[C@H]1CSSC[C@@H](C(=O)N[C@@H](CC(C)C)C(=O)N[C@@H](C)C(=O)N[C@@H](C)C(=O)N[C@@H](CCCNC(=N)N)C(=O)N[C@@H](C)C(=O)O)NC(=O)[C@H](CCC(N)=O)NC(=O)[C@H](CCCNC(=N)N)NC(=O)[C@H](CC(C)C)NC(=O)[C@H]([C@@H](C)O)NC(=O)[C@@H]2CCCN2C(=O)CNC(=O)[C@H](CCC(=O)O)NC(=O)[C@H]([C@@H](C)CC)NC(=O)CNC(=O)CNC(=O)CNC(=O)CNC(=O)CNC(=O)CNC(=O)CNC(=O)CNC(=O)[C@H](C)NC(=O)[C@H](CCCNC(=N)N)NC(=O)[C@H](C)NC(=O)[C@H](C)NC(=O)[C@H](CC(C)C)NC1=O)[C@@H](C)O", "note": "[Peptide 14] (H-IEGPTLRQCLAARAGGGGGGGGIEGPTLRQCLAARA-OH; disulfide 9-31; N-terminus assumed)", "values": [
      {"measurement": "in vitro bioactivity, in words", "setting": "human mpl receptor", "value": "inactive"}
    ]},
    {"compound": "IEGPTLRQWLAARA-OH [TMP monomer, IEGPTLRQWLAARA]", "values": [
      {"measurement": "IC50", "setting": "c-Mp1 [1]; read-out: IC50", "value": 2, "unit": "nM"},
      {"measurement": "EC50", "setting": "c-Mp1 [2]", "value": 400, "unit": "nM"}
    ]},
    {"compound": "IEGPTLRQALAARAGGGGGGGGIEGPTLRQALAARA-OH [Peptide 16, IEGPTLRQALAARA-GGGGGGGG-IEGPTLRQALAARA]", "values": [
      {"measurement": "in vitro bioactivity, in words", "setting": "human mpl receptor", "value": "inactive"}
    ]}
  ]
}
